Assay results: PubChem BioAssay AID1963851 (Molecular Pharmacology Branch, DTP, NCI, 2024)
pIC50: −log10 of the molar value.

Test system: 188146-221-R-J1-PDC complex spheroid viability
Assay: Anticancer human tumor 188146-221-R-J1-PDC patient-derived colon adenocarcinoma cell line growth inhibition [POLQ]
Conditions: for pIC50: curve of first compound; for viability, T/C: stronger effect = lower value; active = viability on the fitted dose curve at most 10% of control; inactive = the rest
Summary of the method: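 Growth inhibition in 3D: complex spheroids (tumor PDC, HUVEC, MSC) treated with POLQ inhibitor combinations; where Cmax unknown, highest tested concentration 10 microM, except SN-38 at 1 microM.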

[1] = second compound 0.0316 µM, first compound 0.0316 µM
[2] = second compound 0.0316 µM, first compound 0.1 µM
[3] = second compound 0.0316 µM, first compound 0.316 µM
[4] = second compound 0.0316 µM, first compound 1 µM
[5] = second compound 0.0316 µM, first compound 3.16 µM
[6] = second compound 0.0316 µM, first compound 10 µM
[7] = second compound 0.1 µM, first compound 0.0316 µM
[8] = second compound 0.1 µM, first compound 0.1 µM
[9] = second compound 0.1 µM, first compound 0.316 µM
[10] = second compound 0.1 µM, first compound 1 µM
[11] = second compound 0.1 µM, first compound 3.16 µM
[12] = second compound 0.1 µM, first compound 10 µM
[13] = second compound 0.316 µM, first compound 0.0316 µM
[14] = second compound 0.316 µM, first compound 0.1 µM
[15] = second compound 0.316 µM, first compound 0.316 µM
[16] = second compound 0.316 µM, first compound 1 µM
[17] = second compound 0.316 µM, first compound 3.16 µM
[18] = second compound 0.316 µM, first compound 10 µM
[19] = second compound 1 µM, first compound 0.0316 µM
[20] = second compound 1 µM, first compound 0.1 µM
[21] = second compound 1 µM, first compound 0.316 µM
[22] = second compound 1 µM, first compound 1 µM
[23] = second compound 1 µM, first compound 3.16 µM
[24] = second compound 1 µM, first compound 10 µM
[25] = second compound 3.16 µM, first compound 0.0316 µM
[26] = second compound 3.16 µM, first compound 0.1 µM
[27] = second compound 3.16 µM, first compound 0.316 µM
[28] = second compound 3.16 µM, first compound 1 µM
[29] = second compound 3.16 µM, first compound 3.16 µM
[30] = second compound 3.16 µM, first compound 10 µM
[31] = second compound 10 µM, first compound 0.0316 µM
[32] = second compound 10 µM, first compound 0.1 µM
[33] = second compound 10 µM, first compound 0.316 µM
[34] = second compound 10 µM, first compound 1 µM
[35] = second compound 10 µM, first compound 3.16 µM
[36] = second compound 10 µM, first compound 10 µM
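Note: spheroids exposed to compounds for seven days.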
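Throughout, for viability, T/C: 100% = DMSO vehicle control viability.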

C#Cc1c(F)ccc2cc(O)cc(-c3ncc4c(N5CC6CCC(C5)N6)nc(OCC56CCCN5CC(F)C6)nc4c3F)c12 (stereo not given) + COC1C(OC(N)=O)C(O)C(Oc2ccc3c(O)c(NC(=O)c4ccc(O)c(CC=C(C)C)c4)c(=O)oc3c2C)OC1(C)C
inactive: viability, T/C [1] 105% | viability, T/C [2] 93.5% | viability, T/C [3] 100% | viability, T/C [4] 100% | viability, T/C [5] 103% | viability, T/C [6] 83.1% | viability, T/C [7] 122% | viability, T/C [8] 94% | viability, T/C [9] 92.5% | viability, T/C [10] 95.9% | viability, T/C [11] 85.2% | viability, T/C [12] 93.5% | viability, T/C [13] 113% | viability, T/C [14] 95.9% | viability, T/C [15] 102% | viability, T/C [16] 92.8% | viability, T/C [17] 92.5% | viability, T/C [18] 103% | viability, T/C [19] 112% | viability, T/C [20] 96.1% | viability, T/C [21] 100% | viability, T/C [22] 90.5% | viability, T/C [23] 93.8% | viability, T/C [24] 88.8% | viability, T/C [25] 106% | viability, T/C [26] 103% | viability, T/C [27] 110% | viability, T/C [28] 87.2% | viability, T/C [29] 104% | viability, T/C [30] 82.6% | viability, T/C [31] 100% | viability, T/C [32] 98.6% | viability, T/C [33] 108% | viability, T/C [34] 97.2% | viability, T/C [35] 95.6% | viability, T/C [36] 92.8%
< 5.00: pIC50 (second compound 0.0316 µM) | pIC50 (second compound 0.1 µM) | pIC50 (second compound 0.316 µM) | pIC50 (second compound 1 µM) | pIC50 (second compound 3.16 µM) | pIC50 (second compound 10 µM)

CC(C)n1c(=O)n(C)c2cnc3cc(F)c(-c4ccc(OCCCN5CCCCC5)nc4)cc3c21 + COC1C(OC(N)=O)C(O)C(Oc2ccc3c(O)c(NC(=O)c4ccc(O)c(CC=C(C)C)c4)c(=O)oc3c2C)OC1(C)C
inactive: viability, T/C [1] 103% | viability, T/C [2] 105% | viability, T/C [3] 101% | viability, T/C [4] 97.6% | viability, T/C [5] 94.6% | viability, T/C [6] 82.9% | viability, T/C [7] 103% | viability, T/C [8] 95.8% | viability, T/C [9] 106% | viability, T/C [10] 98% | viability, T/C [11] 93.3% | viability, T/C [12] 82% | viability, T/C [13] 99.6% | viability, T/C [14] 104% | viability, T/C [15] 94.7% | viability, T/C [16] 89.8% | viability, T/C [17] 81.3% | viability, T/C [18] 96.2% | viability, T/C [19] 96.8% | viability, T/C [20] 101% | viability, T/C [21] 103% | viability, T/C [22] 102% | viability, T/C [23] 102% | viability, T/C [24] 86.8% | viability, T/C [25] 98.8% | viability, T/C [26] 101% | viability, T/C [27] 93.4% | viability, T/C [28] 96.1% | viability, T/C [29] 108% | viability, T/C [30] 88.7% | viability, T/C [31] 107% | viability, T/C [32] 101% | viability, T/C [33] 109% | viability, T/C [34] 93.7% | viability, T/C [35] 113% | viability, T/C [36] 90.9%
< 5.00: pIC50 (second compound 0.0316 µM) | pIC50 (second compound 0.1 µM) | pIC50 (second compound 0.316 µM) | pIC50 (second compound 1 µM) | pIC50 (second compound 3.16 µM) | pIC50 (second compound 10 µM)

CCc1cc2c(N3CCc4c(cc(Cn5ccnc5)cc4-c4cn(C)nc4C(F)(F)F)C3=O)cc(C)nc2c(OC)n1 + COC1C(OC(N)=O)C(O)C(Oc2ccc3c(O)c(NC(=O)c4ccc(O)c(CC=C(C)C)c4)c(=O)oc3c2C)OC1(C)C
5.21: pIC50 (second compound 10 µM)
< 5.00: pIC50 (second compound 0.1 µM) | pIC50 (second compound 1 µM) | pIC50 (second compound 3.16 µM)
5.14: pIC50 (second compound 0.0316 µM)
inactive: viability, T/C [1] 112% | viability, T/C [2] 102% | viability, T/C [3] 92.1% | viability, T/C [4] 88.1% | viability, T/C [5] 66.3% | viability, T/C [6] 42.8% | viability, T/C [7] 108% | viability, T/C [8] 101% | viability, T/C [9] 97.7% | viability, T/C [10] 85.4% | viability, T/C [11] 66.4% | viability, T/C [12] 55.9% | viability, T/C [13] 106% | viability, T/C [14] 108% | viability, T/C [15] 105% | viability, T/C [16] 83.3% | viability, T/C [17] 62.4% | viability, T/C [18] 48.2% | viability, T/C [19] 108% | viability, T/C [20] 108% | viability, T/C [21] 101% | viability, T/C [22] 83.2% | viability, T/C [23] 64.2% | viability, T/C [24] 53.2% | viability, T/C [25] 104% | viability, T/C [26] 114% | viability, T/C [27] 103% | viability, T/C [28] 89.2% | viability, T/C [29] 73.9% | viability, T/C [30] 51.1% | viability, T/C [31] 97.5% | viability, T/C [32] 98% | viability, T/C [33] 101% | viability, T/C [34] 78.5% | viability, T/C [35] 60.2% | viability, T/C [36] 43.2%
5.05: pIC50 (second compound 0.316 µM)

CCc1cc2c(N3CCc4c(cc(Cn5ccnc5)cc4-c4cn(C)nc4C(F)(F)F)C3=O)ccnc2c(OC)n1 + COC1C(OC(N)=O)C(O)C(Oc2ccc3c(O)c(NC(=O)c4ccc(O)c(CC=C(C)C)c4)c(=O)oc3c2C)OC1(C)C
5.08: pIC50 (second compound 0.0316 µM)
inactive: viability, T/C [1] 107% | viability, T/C [2] 93.5% | viability, T/C [3] 99.2% | viability, T/C [4] 96.2% | viability, T/C [5] 67.6% | viability, T/C [6] 46.8% | viability, T/C [7] 117% | viability, T/C [8] 108% | viability, T/C [9] 107% | viability, T/C [10] 99.7% | viability, T/C [11] 66.3% | viability, T/C [12] 62.6% | viability, T/C [13] 103% | viability, T/C [14] 108% | viability, T/C [15] 98.1% | viability, T/C [16] 93.7% | viability, T/C [17] 68.7% | viability, T/C [18] 49.9% | viability, T/C [19] 103% | viability, T/C [20] 97.2% | viability, T/C [21] 104% | viability, T/C [22] 104% | viability, T/C [23] 58.5% | viability, T/C [24] 44.7% | viability, T/C [25] 105% | viability, T/C [26] 111% | viability, T/C [27] 102% | viability, T/C [28] 83% | viability, T/C [29] 82.8% | viability, T/C [30] 55.3% | viability, T/C [31] 108% | viability, T/C [32] 95.6% | viability, T/C [33] 108% | viability, T/C [34] 85.5% | viability, T/C [35] 67.8% | viability, T/C [36] 59%
5.01: pIC50 (second compound 0.316 µM)
5.19: pIC50 (second compound 1 µM)
< 5.00: pIC50 (second compound 0.1 µM) | pIC50 (second compound 3.16 µM) | pIC50 (second compound 10 µM)

COc1cc2cc(C(=O)CCC(=O)O)sc2cc1OC + COC1C(OC(N)=O)C(O)C(Oc2ccc3c(O)c(NC(=O)c4ccc(O)c(CC=C(C)C)c4)c(=O)oc3c2C)OC1(C)C
inactive: viability, T/C [1] 108% | viability, T/C [2] 107% | viability, T/C [3] 107% | viability, T/C [4] 111% | viability, T/C [5] 107% | viability, T/C [6] 98% | viability, T/C [7] 105% | viability, T/C [8] 98.3% | viability, T/C [9] 99.9% | viability, T/C [10] 99.8% | viability, T/C [11] 92.9% | viability, T/C [12] 98.3% | viability, T/C [13] 103% | viability, T/C [14] 107% | viability, T/C [15] 99.7% | viability, T/C [16] 94.9% | viability, T/C [17] 95.6% | viability, T/C [18] 93% | viability, T/C [19] 101% | viability, T/C [20] 96.8% | viability, T/C [21] 83.6% | viability, T/C [22] 100% | viability, T/C [23] 101% | viability, T/C [24] 101% | viability, T/C [25] 102% | viability, T/C [26] 94.1% | viability, T/C [27] 95.7% | viability, T/C [28] 84.3% | viability, T/C [29] 114% | viability, T/C [30] 108% | viability, T/C [31] 105% | viability, T/C [32] 92% | viability, T/C [33] 108% | viability, T/C [34] 101% | viability, T/C [35] 111% | viability, T/C [36] 109%
< 5.00: pIC50 (second compound 0.0316 µM) | pIC50 (second compound 0.1 µM) | pIC50 (second compound 0.316 µM) | pIC50 (second compound 1 µM) | pIC50 (second compound 3.16 µM) | pIC50 (second compound 10 µM)
